Like-named read-outs stand apart in the source and are kept apart here.

These results are taken from patent publication US11053219B2, “Substituted pyridines as TYK2 inhibitors” (FronThera U.S. Pharmaceuticals LLC, priority 2018, dated 2021).

One assay concerns the target TYK2 (JH2 domain) (Homo sapiens (Human), UniProt P29597). Description: TYK2 JH2 domain binding assay (DiscoverX KINOMEscan). Conditions: 11-point 3-fold dilution, duplicate.
Assay [1] deals with IL12-induced p-STAT4 in human PBMC. Description: IL-12 induced pSTAT4 in human PBMC. Format: cell-based. Conditions: read-out: p-STAT4 IC50.
Description: Cells were seeded in a round bottom 96-well plate at the concentration of 200,000 cells/well. A 10-point dilution series of test compound (top dose 10 uM, 1:5 dilution) was added to the well using the liquid dispenser (Tecan D300e) and incubated for 1 hour at 37 C. Then human IL-12 recombinant protein (R&D Systems) was added to the well at the final concentration of 10 ng/ml and incubated for 15 minutes at 37 C. Cell lysates were prepared and analyzed by Phospho STAT4 (Tyr693) Kit (Meso Scale Discovery) following manufacturer's protocol.
For calculation of the inhibition rate, the relative pSTAT4 signal of each well=pSTAT4 signal of each well−the average pSTAT4 signal of baseline. The inhibition %=(the average pSTAT4 signal of IL-12 treatment wells−the relative of pSTAT4 signal in each compound containing well)/the average pSTAT4 signal of IL-12 treatment wells*100%
Assay [2] deals with INFα induced pSTAT3 in human PBMC. Description: INFα induced pSTAT3 in human PBMC. Format: cell-based. The following applies: read-out: p-STAT3 IC50. As to the method:
Fresh Human PBMCs were resuspended in RPMI 1640 medium with 10% FBS. Cells were seeded in a round bottom 96-well plate at the concentration of 200,000 cells/well. A 10-point dilution series of test compound (top dose 10 uM, 1:5 dilution) was added to the well using the liquid dispenser (Tecan D300e) and incubated for 1 hour at 37 C. Then human INFα recombinant protein (R&D Systems) was added to the well at the final concentration of 5000 units/ml and incubated for 15 minutes at 37 C. Cell lysates were prepared and analyzed by Phospho STAT3 (Tyr705) cellular kit (Cisbio) or Phospho STAT5 (Tyr693) Kit (Meso Scale Discovery) following manufacturer's protocol.
For calculation of the inhibition rate, the relative pSTAT signal of each well=pSTAT signal of each well−the average pSTAT signal of baseline. The inhibition %=(the average pSTAT signal of INFα treatment wells−the relative of pSTAT signal in each compound containing well)/the average pSTAT signal of INFα treatment wells*100%
The curve was plotted as the inhibition % (y-axis) vs. compounds concentration (x-axis) and was fitted with log(inhibitor) vs. normalized response—Variable slope by GraphPad Prism7.0.

Sequence of TYK2 (JH2 domain) (P29597 589-875): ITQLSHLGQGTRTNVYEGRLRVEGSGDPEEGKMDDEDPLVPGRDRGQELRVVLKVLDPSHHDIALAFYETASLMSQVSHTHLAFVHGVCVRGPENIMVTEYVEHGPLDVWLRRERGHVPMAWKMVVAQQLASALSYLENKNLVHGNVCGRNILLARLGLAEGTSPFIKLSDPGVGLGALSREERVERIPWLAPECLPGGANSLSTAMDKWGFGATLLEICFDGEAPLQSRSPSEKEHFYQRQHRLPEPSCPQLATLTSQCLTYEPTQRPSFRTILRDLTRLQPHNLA

A word on the Kd: it is the constant that tells how readily two partners part at equilibrium. Read a low Kd as a tighter complex. A word on the IC50: it is the concentration that inhibits the measured activity by half. As to `[2H]C([2H])([2H])NC(=O)c1nnc(N2CCN(C3CC3)C2=O)cc1Nc1cccc(-c2ncn(C)n2)c1OC` [Example 5, 6-(3-cyclopropyl-2-oxo-imidazolidin-1-yl)-4-[2-methoxy-3-(1-methyl-1,2,4-triazol-3-yl)anilino]-N-(trideuteriomethyl)pyridazine-3-carboxamide], the Kd on TYK2 (JH2 domain) was not above 0.001 µM. The IC50 in assay [1] (human PBMC, IL-12 10 ng/ml) is less than 0.1 µM; in assay [2] (human PBMC, INFα 5000 units/ml), 0.1 to 1 µM.

With `[2H]C([2H])([2H])NC(=O)c1nnc(N2CCN(CC(F)F)C2=O)cc1Nc1cccc(-c2ncn(C)n2)c1OC` [Example 8, 6-[3-(2,2-difluoroethyl)-2-oxo-imidazolidin-1-yl]-4-[2-methoxy-3-(1-methyl-1,2,4-triazol-3-yl)anilino]-N-(trideuteriomethyl)pyridazine-3-carboxamide; 2,2,2-trifluoroacetic acid], the Kd at TYK2 (JH2 domain) is not above 0.001 µM. In addition, the IC50 was less than 0.1 µM in assay [1] (Homo sapiens, PBMC) and less than 0.1 µM in assay [2] (Homo sapiens, PBMC).

At TYK2 (JH2 domain), `[2H]C([2H])([2H])NC(=O)c1nnc(N2CCN(CCOC)C2=O)cc1Nc1cccc(-c2ncn(C)n2)c1OC` [Example 9, 6-[3-(2-methoxyethyl)-2-oxo-imidazolidin-1-yl]-4-[2-methoxy-3-(1-methyl-1,2,4-triazol-3-yl)anilino]-N-(trideuteriomethyl)pyridazine-3-carboxamide] showed a Kd not above 0.001 µM. Moreover, the IC50 in assay [1] (human PBMC, IL-12 10 ng/ml) is less than 0.1 µM; in assay [2] (human PBMC, INFα 5000 units/ml), 0.1 to 1 µM.

Regarding `[2H]C([2H])([2H])NC(=O)c1nnc(N2CCN(CC)C2=O)cc1Nc1cccc(-c2ncn(C)n2)c1OC` [Example 12, 6-(3-ethyl-2-oxo-imidazolidin-1-yl)-4-[2-methoxy-3-(1-methyl-1,2,4-triazol-3-yl)anilino]-N-(trideuteriomethyl)pyridazine-3-carboxamide], the Kd on TYK2 (JH2 domain) is not above 0.001 µM. Moreover, the IC50 in assay [1] (Homo sapiens, PBMC) was less than 0.1 µM; in assay [2] (Homo sapiens, PBMC), less than 0.1 µM.

Regarding `[2H]C([2H])([2H])NC(=O)c1c(Nc2cccc(-c3ncn(C)n3)c2OC)cc(NC(=O)C2CC2)nc1F` [Example 23], the Kd on TYK2 (JH2 domain) is not above 0.001 µM. For the same molecule, the IC50 in assay [1] (human PBMC, IL-12 10 ng/ml) lay in the range of 0.1 to 1 µM; in assay [2] (human PBMC, INFα 5000 units/ml), 0.1 to 1 µM.

`COc1c(Nc2cc(NC(=O)C3CC3)nnc2C(C)=O)cccc1-c1ncn(C)n1` [Example 24]: on TYK2 (JH2 domain), the dissociation constant (Kd) lay in the range of 0.001 to 0.005 µM. The IC50 lay within 0.1 to 1 µM in assay [1] (human PBMC, IL-12 10 ng/ml) and 0.1 to 1 µM in assay [2] (human PBMC, INFα 5000 units/ml).

`CCC(=O)c1nnc(NC(=O)C2CC2)cc1Nc1cccc(-c2ncn(C)n2)c1OC` [Example 25]: the Kd on TYK2 (JH2 domain) was not above 0.001 µM. Besides, the 50% inhibitory concentration (IC50) lay in the range of 0.1 to 1 µM in assay [1] (human PBMC, IL-12 10 ng/ml) and 0.1 to 1 µM in assay [2] (human PBMC, INFα 5000 units/ml).

Regarding `COc1c(Nc2cc(NC(=O)C3CC3)nnc2C(=O)C2CC2)cccc1-c1ncn(C)n1` [Example 26], at TYK2 (JH2 domain), the dissociation constant (Kd) is not above 0.001 µM. In addition, the 50% inhibitory concentration (IC50) in assay [1] (human PBMC, IL-12 10 ng/ml) was less than 0.1 µM; in assay [2] (human PBMC, INFα 5000 units/ml) it was 0.1 to 1 µM.

On TYK2 (JH2 domain), `COc1c(Nc2cc(NC(=O)C3CC3)nc3ncn(C)c(=O)c23)cccc1-c1ncn(C)n1` [Example 39] registered a dissociation constant Kd of 0.005 to 0.01 µM. The 50% inhibitory concentration (IC50) in assay [1] (human PBMC, IL-12 10 ng/ml) lay within 0.1 to 1 µM; in assay [2] (human PBMC, INFα 5000 units/ml), 0.1 to 1 µM.

Regarding `[2H]C([2H])([2H])NC(=O)c1nnc(N/C(=N/O)C2CC2)cc1Nc1cccc(-c2ncn(C)n2)c1OC` [Example 40], at TYK2 (JH2 domain), the equilibrium dissociation constant (Kd) was not above 0.001 µM. For the same molecule, the 50% inhibitory concentration (IC50) lay in the range of 0.1 to 1 µM in assay [1] (human PBMC, IL-12 10 ng/ml) and 0.1 to 1 µM in assay [2] (human PBMC, INFα 5000 units/ml).

With `COc1c(Nc2cc(NC(=O)C3CC3)nc3c2C2=NC(=O)CN2C3)cccc1-c1ncn(C)n1` [Example 41], the Kd at TYK2 (JH2 domain) lay in the range of 0.001 to 0.005 µM. Also, the IC50 in assay [1] (human PBMC, IL-12 10 ng/ml) lay within 1 to 10 µM; in assay [2] (human PBMC, INFα 5000 units/ml), 1 to 10 µM.

On TYK2 (JH2 domain), `[2H]C([2H])([2H])NC(=O)c1c(Nc2cccc(-c3nnn(C)n3)c2OC)cc(NC(=O)C2CC2)nc1F` [Example 42] yielded a Kd of 0.001 to 0.005 µM. The IC50 in assay [1] (human PBMC, IL-12 10 ng/ml) is 0.1 to 1 µM; in assay [2] (human PBMC, INFα 5000 units/ml), 1 to 10 µM.

`COc1c(Nc2cc(NC(=O)C3CC3)nc3c2C(=O)NC3)cccc1-c1ncn(C)n1` [Example 43] registered a Kd at TYK2 (JH2 domain) of 0.005 to 0.01 µM. Also, the IC50 in assay [1] (human PBMC, IL-12 10 ng/ml) was more than 10 µM; in assay [2] (human PBMC, INFα 5000 units/ml) it was 1 to 10 µM.

On to `COc1c(Nc2cc(NC(=O)C3CC3)nnc2C(=O)C(F)F)cccc1-c1ncn(C)n1` [Example 44], for which the Kd at TYK2 (JH2 domain) is 0.001 to 0.005 µM. Also, the IC50 in assay [1] (human PBMC, IL-12 10 ng/ml) was in the range of 0.1 to 1 µM; in assay [2] (human PBMC, INFα 5000 units/ml) it was 1 to 10 µM.

Consider `COc1c(Nc2cc(NC(=O)C3CC3)nc3cn(C)nc23)cccc1-c1ncn(C)n1` [Example 55], for which, at TYK2 (JH2 domain), the Kd was in the range of 0.001 to 0.005 µM. For the same molecule, the half-maximal inhibitory concentration (IC50) in assay [1] (human PBMC, IL-12 10 ng/ml) lay within 0.1 to 1 µM; in assay [2] (human PBMC, INFα 5000 units/ml), 0.1 to 1 µM.

The molecule `[2H]C([2H])([2H])NC(=O)c1nnc(N2CCCC2=O)cc1Nc1cccc(-c2ncn(C)n2)c1OC` [Example 56] yielded a Kd on TYK2 (JH2 domain) of 0.001 to 0.005 µM. Moreover, the concentration for half-maximal inhibition (IC50) in assay [1] (human PBMC, IL-12 10 ng/ml) was in the range of 0.1 to 1 µM; in assay [2] (human PBMC, INFα 5000 units/ml), 1 to 10 µM.

On TYK2 (JH2 domain), `[2H]C([2H])([2H])NC(=O)c1nnc(N2CC(F)(F)C2=O)cc1Nc1cccc(-c2ncn(C)n2)c1OC` [Example 57] showed a Kd of 0.001 to 0.005 µM. Further, the IC50 in assay [1] (human PBMC, IL-12 10 ng/ml) is 1 to 10 µM; in assay [2] (human PBMC, INFα 5000 units/ml), 1 to 10 µM.
